From the supplement of paper PMC10307832

Assays:
Assay in all cases: relative viability (nuclei count vs DMSO), 5 days (fraction); higher = more cells survive
[1] = compound: COc1cc(Nc2ncc3c(n2)-c2ccc(Cl)cc2C(c2c(F)cccc2OC)=NC3)ccc1C(=O)O [Alisertib] + Cc1nc(NC(=O)N2CCC[C@H]2C(N)=O)sc1-c1ccnc(C(C)(C)C(F)(F)F)c1 [Alpelisib] (partner 2 µM)
Outline: (§1)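 Lung cancer cell lines in 1536-well plates were dosed by pin tool the day after seeding, either with one drug alone or with a fixed anchor-drug dose plus five library-drug doses (not always all listed) in √10 steps. After 5 days, cells were fixed and their nuclei stained in one step (final 0.05% Triton X-100, 1% formaldehyde, 1 ug/ml Hoechst), then counted on 4× images. Relative viability is the nuclei count in treated wells divided by that in vehicle wells. Values are medians of duplicate plates.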

[2] = compound: COc1cc(Nc2ncc3c(n2)-c2ccc(Cl)cc2C(c2c(F)cccc2OC)=NC3)ccc1C(=O)O [Alisertib] + C[C@]1(O)C[C@@H](c2nc(-c3ccc4ccc(-c5ccccc5)nc4c3)c3c(N)nccn32)C1 [Linsitinib] (partner 1 µM)
Outline: as §1

[3] = compound: COc1cc(Nc2ncc3c(n2)-c2ccc(Cl)cc2C(c2c(F)cccc2OC)=NC3)ccc1C(=O)O [Alisertib] + Nc1ncn([C@H]2C[C@H](O)[C@@H](CO)O2)c(=O)n1 [Decitabine] (partner 2 µM)
Outline: as §1

[4] = compound: COc1cc(Nc2ncc3c(n2)-c2ccc(Cl)cc2C(c2c(F)cccc2OC)=NC3)ccc1C(=O)O [Alisertib] + CS(=O)(=O)N1CCN(Cc2cc3nc(-c4cccc5[nH]ncc45)nc(N4CCOCC4)c3s2)CC1 [Pictilisib] (partner 1 µM)
Outline: as §1

Cell Line	relative viability ([1]; first compound 0.005 µM)	relative viability ([1]; first compound 0.01581 µM)	relative viability ([1]; first compound 0.05 µM)	relative viability ([1]; first compound 0.1581 µM)	relative viability ([1]; first compound 0.5 µM)	relative viability ([2]; first compound 0.005 µM)	relative viability ([2]; first compound 0.01581 µM)	relative viability ([2]; first compound 0.05 µM)	relative viability ([2]; first compound 0.1581 µM)	relative viability ([2]; first compound 0.5 µM)	relative viability ([3]; first compound 0.005 µM)	relative viability ([3]; first compound 0.01581 µM)	relative viability ([3]; first compound 0.05 µM)	relative viability ([3]; first compound 0.1581 µM)	relative viability ([3]; first compound 0.5 µM)	relative viability ([4]; first compound 0.005 µM)	relative viability ([4]; first compound 0.01581 µM)	relative viability ([4]; first compound 0.05 µM)	relative viability ([4]; first compound 0.1581 µM)	relative viability ([4]; first compound 0.5 µM)
NCI-H1792	0.678	0.606	0.246	0.0918	0.0744	0.546	0.372	0.177	0.076	0.0631	0.575	0.496	0.213	0.132	0.0838	0.304	0.223	0.0811	0.0732	0.0644
NCI-H1355	0.767	0.783	0.296	0.197	0.154	0.791	0.8	0.394	0.22	0.154	0.347	0.358	0.229	0.177	0.154	0.37	0.374	0.28	0.181	0.164
UMC-11	0.736	0.194	0.137	0.135	0.103	0.755	0.495	0.168	0.148	0.158	0.514	0.324	0.291	0.213	0.214	0.316	0.379	0.129	0.137	0.133
A549	0.531	0.333	0.144	0.059	0.0557	0.556	0.414	0.139	0.0745	0.0473	0.247	0.207	0.125	0.0435	0.0399	0.423	0.123	0.051	0.0422	0.0618
NCI-H2347	0.903	0.877	0.857	0.637	0.436	0.967	0.954	0.812	0.729	0.478	0.574	0.582	0.523	0.51	0.374	0.534	0.431	0.41	0.376	0.429
LCLC-97TM1	0.23	0.203	0.15	0.138	0.112	0.197	0.185	0.135	0.114	0.0896	0.235	0.168	0.114	0.115	0.144	0.223	0.167	0.135	0.108	0.0964
EMC-BAC-2	0.701	0.567	0.296	0.259	0.143	0.752	0.595	0.298	0.279	0.202	0.849	0.694	0.445	0.343	0.291	0.516	0.414	0.291	0.271	0.233
NCI-H1975	0.632	0.621	0.295	0.215	0.168	0.917	0.861	0.484	0.331	0.188	0.32	0.359	0.142	0.191	0.153	0.26	0.348	0.237	0.151	0.163
BEN	1.05	0.923	0.37	0.232	0.218	0.83	0.878	0.259	0.208	0.205	0.607	0.51	0.304	0.363	0.325	0.554	0.508	0.276	0.24	0.224
NCI-H23	0.819	0.462	0.228	0.173	0.157	0.621	0.545	0.228	0.191	0.155	0.3	0.184	0.184	0.2	0.178	0.422	0.302	0.18	0.185	0.147
NCI-H520	0.966	0.766	0.429	0.323	0.273	0.805	0.667	0.423	0.308	0.22	0.435	0.451	0.355	0.236	0.242	0.23	0.203	0.209	0.179	0.187
EPLC-272H	0.858	0.838	0.486	0.266	0.133	0.998	0.865	0.921	0.3	0.131	0.344	0.363	0.295	0.141	0.152	0.281	0.244	0.227	0.14	0.124
LCLC-103H	0.849	1.03	0.313	0.335	0.333	1.05	1.03	1.03	0.235	0.297	0.72	0.714	0.355	0.315	0.431	0.588	0.687	0.573	0.211	0.206
NCI-H2405	0.817	0.707	0.699	0.42	0.248	0.922	0.814	0.818	0.384	0.266	0.648	0.748	0.632	0.39	0.277	0.433	0.358	0.365	0.274	0.176
HCC-15	0.875	0.662	0.229	0.148	0.106	0.863	0.725	0.275	0.159	0.113	0.541	0.316	0.19	0.13	0.139	0.586	0.64	0.233	0.117	0.123
RERF-LC-KJ	0.819	0.823	0.622	0.283	0.196	0.92	0.789	0.581	0.207	0.227	0.731	0.443	0.258	0.173	0.247	0.49	0.517	0.435	0.206	0.159
